Experimental data from patent US10406238B2, “Ligand ionophore conjugates” (PURDUE RESEARCH FOUNDATION, priority 2015, dated 2019).
pIC50, pKd: −log10 of the molar value.

Legend:
KB cells [1] = test: Confocal microscopy for endosomal release in KB cells; assay type: cell-based, human
folate receptor = molecular target: T1, folate receptor (Homo sapiens, UniProt P15328); test: Binding affinity to folate receptors in KB cells
T1 construct: endogenous in cells; host or cells: KB cells (human; maintained at Purdue Cancer Cell Culture Facility)
T1 sequence (P15328 25-234): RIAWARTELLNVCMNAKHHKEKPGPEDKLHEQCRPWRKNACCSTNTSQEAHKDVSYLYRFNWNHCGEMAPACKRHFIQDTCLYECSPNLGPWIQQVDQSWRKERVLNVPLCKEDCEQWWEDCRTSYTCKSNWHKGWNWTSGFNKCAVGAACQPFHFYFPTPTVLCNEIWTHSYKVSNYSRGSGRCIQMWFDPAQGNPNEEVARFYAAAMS

FRβ-expressing RAW cells = test: Endosomal escape in FRβ-expressing RAW cells (confocal); assay type: cell-based
KB cells [2] = test system: KB cells
KB cells [3] = test: cells; conditions: Homo sapiens, read-out: IC50 concentration, growth of KB cells
folate receptors = conditions: read-out: binding affinity Kd; cited from earlier work

Compound: CO[C@@H]1C[C@@H](C[C@H]2CC[C@H](C)C([C@@H](C)C(=O)OCCSSC[C@H](NC(=O)[C@H](CC(=O)O)NC(=O)[C@H](CC(=O)O)NC(=O)[C@H](CCCNC(=N)N)NC(=O)[C@H](CC(=O)O)NC(=O)CC[C@H](NC(=O)c3ccc(NCc4cnc5nc(N)[nH]c(=O)c5n4)cc3)C(=O)O)C(=O)O)O2)O[C@]2(O[C@@](C)(C3CC[C@@](C)([C@@H]4O[C@@H]([C@@H]5O[C@@](O)(CO)[C@H](C)C[C@@H]5C)C[C@@H]4C)O3)C[C@H]2C)[C@@H]1C (some centres unmarked) [conjugate 1]
- effective concentration for co-incubation (KB cells [1]): 200 nM
- endosomal release of the rhodamine dye (KB cells [1]): lower
- release of rhodamine dye from the endosome (KB cells [1]): considerable release
- time of high release of rhodamine dye from endosomes (KB cells [1]): 1 to 3 h
- binding affinity to folate receptors compared to folate-rhodamine compound 2 (folate receptor): 5 times lower
- endosome size versus cells not treated with conjugate (FRβ-expressing RAW cells; 100 nM FN with 10 nM FR, FIG. 9): somewhat larger

Compound: CCN(CC)c1ccc2c(-c3ccc(S(=O)(=O)NCCSSC[C@H](CC(=O)O)NC(=O)[C@H](CCCCN)NC(=O)[C@H](CC(=O)O)NC(=O)CC[C@H](NC(=O)c4ccc(NCc5cnc6nc(N)[nH]c(=O)c6n5)cc4)C(=O)O)cc3S(=O)(=O)[O-])c3ccc(=[N+](CC)CC)cc-3oc2c1 [compound 2, reference compound]
- accumulation of dye inside the endosomes (FRβ-expressing RAW cells; 10 nM FR, by 2 h, with or without folate-nigericin conjugate 1): significant accumulation

Compound: CO[C@@H]1C[C@@H](C[C@H]2CC[C@H](C)[C@H]([C@@H](C)C(=O)O)O2)O[C@]2(O[C@](C)([C@H]3CC[C@@](C)([C@@H]4O[C@@H]([C@H]5O[C@@](O)(CO)[C@H](C)C[C@@H]5C)C[C@@H]4C)O3)C[C@H]2C)[C@@H]1C [nigericin]
- toxicity to the cells (KB cells [2]): not toxic
- pIC50 (KB cells [3]): 4.92

Compound: CO[C@@H]1C[C@@H](C[C@H]2CC[C@H](C)C([C@@H](C)C(=O)O)O2)O[C@]2(O[C@@](C)(C3CC[C@@](C)([C@@H]4O[C@@H]([C@@H]5O[C@@](O)(COC(=O)NCCSSC[C@H](NC(=O)[C@H](CC(=O)O)NC(=O)[C@H](CC(=O)O)NC(=O)[C@H](CCCNC(=N)N)NC(=O)[C@H](CC(=O)O)NC(=O)CC[C@H](NC(=O)c6ccc(NCc7cnc8nc(N)[nH]c(=O)c8n7)cc6)C(=O)O)C(=O)O)[C@H](C)C[C@@H]5C)C[C@@H]4C)O3)C[C@H]2C)[C@@H]1C (some centres unmarked) [conjugate 5]
- binding affinity to folate receptors compared to folate-rhodamine compound 2 (folate receptor): three times lower

Compound: Nc1nc2ncc(CNc3ccc(C(=O)N[C@@H](CCC(=O)O)C(=O)O)cc3)nc2c(=O)[nH]1 [Folic acid]
- pKd (folate receptors): 10.00
